The values below come from patent US12533339B2, “Small molecule antiviral drug treatment for human papillomavirus infections” (THE TRUSTEES OF INDIANA UNIVERSITY, priority 2020, dated 2026).

For experiment [1], the target named is T1, E6 WT/E6AP (Human papillomavirus type 16, UniProt P03126). As to the kind of experiment: biochemical. The class given is binding. The settings on record: WT 16E6; for inhibition at 10 µM: 10 μM compound; for inhibition at 100 µM: 100 μM compound.
The target of a further experiment is E6 Cys51Ser mutant (Human papillomavirus type 16, UniProt P03126, C58S). In words: Whole protein ESI mass spectrometry, adduct with E6 Cys51Ser mutant. The class given is binding, HPV-16. The following applies: 100 μM for 16 hr at 4° C., FIG. 1A bottom.
Sequence of E6 Cys51Ser mutant (P03126 8-158 C58S): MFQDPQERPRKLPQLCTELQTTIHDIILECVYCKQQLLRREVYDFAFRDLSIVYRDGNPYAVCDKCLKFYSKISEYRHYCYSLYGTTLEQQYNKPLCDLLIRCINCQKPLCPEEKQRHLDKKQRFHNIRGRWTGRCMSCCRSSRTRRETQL
For experiment [2], the target named is T1, E6 WT/E6AP. As to the kind of experiment: biochemical. The class given is binding. The following applies: for Emax: E6 WT, read-out: BLI maximal Inhibition (max %) E6 WT/E6AP.
Experiment [3] deals with T2, E6C51S/E6AP (Human papillomavirus type 16, UniProt P03126, C58S). As to the kind of experiment: BLI binding assay, E6 C51S binding to captured E6AP. Also on record: species or system HPV-16. The settings on record: for loss of ability to inhibit mutant form E6-Cys51Ser (BLI), in words: FIG. 1B; for BLI maximal Inhibition (max %) E6C51S/E6AP: at 24 h, E6 C51S. In general terms: BLI is a label-free optical method that tracks binding on a fibre tip over time.
T2 sequence (P03126 whole entry C58S, looked up): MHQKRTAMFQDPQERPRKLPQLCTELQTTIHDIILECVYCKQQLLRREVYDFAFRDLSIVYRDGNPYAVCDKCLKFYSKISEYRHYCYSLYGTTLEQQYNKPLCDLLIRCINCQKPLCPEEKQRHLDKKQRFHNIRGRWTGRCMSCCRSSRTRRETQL

The target in the next experiment is wild-type E6 (Human papillomavirus type 16, UniProt P03126). The class given is binding. The settings on record: 100 μM for 16 hr at 4° C., FIG. 1A top.
Sequence of wild-type E6 (P03126 8-158): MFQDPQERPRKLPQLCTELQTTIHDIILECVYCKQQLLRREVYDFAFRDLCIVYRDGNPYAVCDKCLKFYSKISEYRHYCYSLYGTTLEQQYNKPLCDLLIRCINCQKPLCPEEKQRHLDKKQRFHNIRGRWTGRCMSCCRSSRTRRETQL
Experiment [4] deals with T2, E6C51S/E6AP. As to the kind of experiment: E6/E6AP binding assay (amylose-bound MBP-16E6, E6AP-BAP activity), C51S 16E6. The following applies: for % Inhibition @ 10 μM E6C51S/E6AP: 10 μM compound; for % Inhibition @ 100 μM E6C51S/E6AP: 100 μM compound. Also on record: species or system HPV-16.
Experiment [5] concerns the target T1, E6 WT/E6AP. In words: biochemical. The class given is binding. The settings on record: for Emax: 24 h, read-out: FP maximal inhibition (max %) E6 WT/E6AP.
In experiment [6] the target is T2, E6C51S/E6AP. In words: Fluorescence Polarization (FP) assay, MBP-E6 C51S with labeled peptide. The class given is binding, HPV-16. The following applies: at 24 h. In general terms: In fluorescence polarisation assays a small probe gives low polarisation when free and higher when bound to something large.
Another experiment has as its system RPE-1 cells. In words: Colony formation, crystal violet absorbance at 590 nm. The class given is cell-based. The following applies: RPE-1 cells (no HPV), 14 days, normalized to DMSO, FIG. 6. The procedure: FIG. 6 depicts colony formation capabilities of SiHa, CaSki or RPE-1 cells in the presence of the indicated concentrations of EIN-166. Fifty cells were seeded and incubated with DMSO or EIN-166. After 14 days, cells were fixed and stained with crystal violet. Stained colonies were dissolved and absorbance at 590 nm was measured. Treatments were normalized to DMSO. Data expressed as S.E.M and *P<0.05 (n=3).

Where two headings read alike, the source gives them in different places.

T1 sequence (P03126 8-158): as above

Regarding `Cc1ccccc1C1c2ccsc2CCN1CC(=O)N1CCCN(C(=O)CCl)CC1` (centres unmarked) [EIN-116, 2-chloro-1-(4-(2-(4-(o-tolyl)-6,7-dihydrothieno[3,2-c]pyridin-5(4H)-yl)acetyl)-1,4-diazepan-1-yl)ethan-1-one], at E6 WT/E6AP [1], the inhibition at 10 µM amounted to 29 ± 8% and the inhibition at 100 µM was found to be 74 ± 3%. On E6 Cys51Ser mutant, the “adduct formation with E6 Cys51Ser mutant” value is listed as “not with E6 Cys51Ser mutant”. In addition, at E6 WT/E6AP [2] (E6 WT with increasing concentration of compound), the “inhibition of E6 binding to E6AP (BLI), in words” value is reported as “inhibited E6 binding to E6AP in a concentration-dependent manner”. Moreover, the Emax at E6 WT/E6AP [2] (at 24 h) was determined as 100%. At E6C51S/E6AP [3], the “loss of ability to inhibit mutant form E6-Cys51Ser (BLI), in words” value was “partly” and the “BLI maximal Inhibition (max %) E6C51S/E6AP” value is recorded as “(max 100%)”. Also, the “adduct formation with wild-type E6” value on wild-type E6 is listed as “formed an adduct”. Moreover, at E6C51S/E6AP [4], the “% Inhibition @ 10 μM E6C51S/E6AP” value came to 5 ± 5% and the “% Inhibition @ 100 μM E6C51S/E6AP” value came out at 36 ± 11%.
In the case of `C=CC(=O)N1CCCN(C(=O)CN2CCc3sccc3C2c2ccccc2C)CC1` (centres unmarked) [EIN-122, 1-(4-(2-(4-(o-tolyl)-6,7-dihydrothieno[3,2-c]pyridin-5(4H)-yl)acetyl)-1,4-diazepan-1-yl)prop-2-en-1-one], on E6 WT/E6AP [1], the inhibition at 10 µM was 0% and the inhibition at 100 µM was determined as 97 ± 1%. Also, on E6 WT/E6AP [2] (at 24 h, 2 μM E6 WT pre-incubated with compound), the IC50 came to 62.7 ± 12.1 µM. In addition, the Emax at E6 WT/E6AP [2] (at 24 h) worked out at 100%. In addition, the “loss of ability to inhibit mutant form E6-Cys51Ser (BLI), in words” value on E6C51S/E6AP [3] was “nearly completely lost”.
Regarding `O=C(CCl)N1CCN(c2nc(CCc3ccccc3)nc3sc4c(c23)CCCC4)CC1` [EIN-125, 2-chloro-1-(4-(2-phenethyl-5,6,7,8-tetrahydrobenzo[4,5]thieno[2,3-d]pyrimidin-4-yl)piperazin-1-yl)ethan-1-one], at E6 WT/E6AP [1], the inhibition at 10 µM came out at 54 ± 13% and the inhibition at 100 µM is 102 ± 10%. Further, at E6 WT/E6AP [2] (at 24 h), the Emax was found to be 100%. Also, at E6C51S/E6AP [3], the “BLI maximal Inhibition (max %) E6C51S/E6AP” value is “(max 100%)”. Also, at E6C51S/E6AP [4], the “% Inhibition @ 10 μM E6C51S/E6AP” value amounted to 32 ± 11% and the “% Inhibition @ 100 μM E6C51S/E6AP” value stood at 62 ± 1%.
With `C=CC(=O)N1CCN(c2nc(CCc3ccccc3)nc3sc4c(c23)CCCC4)CC1` [EIN-132, 1-(4-(2-phenethyl-5,6,7,8-tetrahydrobenzo[4,5]thieno[2,3-d]pyrimidin-4-yl)piperazin-1-yl)prop-2-en-1-one], on E6 WT/E6AP [1], the inhibition at 10 µM came to 3.5 ± 2% and the inhibition at 100 µM was 61 ± 2%. Besides, on E6 WT/E6AP [2] (at 24 h), the Emax is 100%. Also, at E6C51S/E6AP [3], the “BLI maximal Inhibition (max %) E6C51S/E6AP” value was “(max 100%)”. Besides, on E6C51S/E6AP [4], the “% Inhibition @ 10 μM E6C51S/E6AP” value is recorded as 0% and the “% Inhibition @ 100 μM E6C51S/E6AP” value is 19 ± 5%.
For the compound `C=CC(=O)N1CCN(c2nc(Cc3ccc(F)cc3)nc3sc4c(c23)CCCC4)CC1` [EIN-146, 1-(4-(2-(4-fluorobenzyl)-5,6,7,8-tetrahydrobenzo[4,5]thieno[2,3-d]pyrimidin-4-yl)piperazin-1-yl)prop-2-en-1-one], the Emax on E6 WT/E6AP [5] came out at 20%. Further, at E6 WT/E6AP [1], the inhibition at 10 µM is 16 ± 4% and the inhibition at 100 µM worked out at 30 ± 3%. In addition, at E6 WT/E6AP [2] (at 24 h), the Emax amounted to 100%. In addition, at E6C51S/E6AP [3], the “BLI maximal Inhibition (max %) E6C51S/E6AP” value is “(max 100%)”. Also, at E6C51S/E6AP [4], the “% Inhibition @ 10 μM E6C51S/E6AP” value was 11 ± 7% and the “% Inhibition @ 100 μM E6C51S/E6AP” value turned out to be 15 ± 8%.
`C=CC(=O)N1CCN(c2nc(CCc3cccc(OC)c3)nc3sc4c(c23)CCCCC4)CC1` [EIN-150, 1-(4-(2-(3-methoxyphenethyl)-6,7,8,9-tetrahydro-5H-cyclohepta[4,5]thieno[2,3-d]pyrimidin-4-yl)piperazin-1-yl)prop-2-en-1-one]: the Emax at E6 WT/E6AP [5] was determined as 57%; on E6 WT/E6AP [2] (at 24 h), 100%. For the same compound, the “BLI maximal Inhibition (max %) E6C51S/E6AP” value at E6C51S/E6AP [3] is reported as “(max 100%)”.
As to `C=CC(=O)N1CCN(c2nc(CCc3cccc(OC)c3)nc3sccc23)CC1` [EIN-152, 1-(4-(2-(3-methoxyphenethyl)thieno[2,3-d]pyrimidin-4-yl)piperazin-1-yl)prop-2-en-1-one], on E6C51S/E6AP [6], the “FP maximal inhibition (max %) E6C51S/E6AP” value is “(max 100%)”. In addition, the values for the Emax on E6 WT/E6AP [5] and on E6 WT/E6AP [2] (at 24 h) were 98% and 100%, respectively. In addition, the “BLI maximal Inhibition (max %) E6C51S/E6AP” value on E6C51S/E6AP [3] was “(max 60%)”.
In the case of `C=CC(=O)N1CCN(c2nc(CCc3cccc(OC)c3)nc3ccccc23)CC1` [EIN-154, 1-(4-(2-(3-methoxyphenethyl)quinazolin-4-yl)piperazin-1-yl)prop-2-en-1-one], the Emax was 93% at E6 WT/E6AP [5] and 100% at E6 WT/E6AP [2] (at 24 h). Further, on E6C51S/E6AP [3], the “BLI maximal Inhibition (max %) E6C51S/E6AP” value was “(max 75%)”.
The corresponding values for `COc1cccc(CCc2nc(N3CCN(C(=O)/C=C/CN(C)C)CC3)c3ccccc3n2)c1` [EIN-155, (E)-4-(dimethylamino)-1-(4-(2-(3-methoxyphenethyl)quinazolin-4-yl)piperazin-1-yl)but-2-en-1-one] are 100%, 100% and “(max 100%)”.
With `C=CC(=O)N1CCN(C(=O)CN2CCc3ccccc3C2c2ccccc2C)CC1` (centres unmarked) [EIN-166, 1-(4-(2-(1-(o-tolyl)-3,4-dihydroisoquinolin-2(1H)-yl)acetyl)piperazin-1-yl)prop-2-en-1-one], in the experiment on RPE-1 cells, the colony formation capability entry is “no significant changes”. Also, the Emax at E6 WT/E6AP [5] was found to be 100%. Further, 73.4 ± 3.7 µM corresponded to half-maximal inhibition at E6 WT/E6AP [5] (FP IC50 at 24 h (μM) E6 WT/E6AP) (IC50).

In general, inhibition refers to the change of the read-out against control, counted positive when it falls. Broadly, the IC50 is the midpoint of a concentration-inhibition curve.
